From ChEMBL document CHEMBL5523727, “Discovery of KT-413, a Targeted Protein Degrader of IRAK4 and IMiD Substrates Targeting MYD88 Mutant Diffuse Large B-Cell Lymphoma” (J Med Chem, 2024)
Activity calls are given as the source filed them. No cut-off for these calls is given here.

What was measured:
[1] = AUC in rat at 5 mg/kg, po by LC-MS/MS analysis; format: ADME, organism-based; details: in vivo
[2] = Clearance in rat at 2 mg/kg, iv by LC-MS/MS analysis; format: ADME, organism-based; details: in vivo
Cereblon/Ikaros [3] = target: T1, Cereblon/Ikaros (Homo sapiens, UniProt Q96SW2+Q13422); test: PROTAC activity at CRBN/Ikaros in human OCI-Ly10 cells assessed as induction of Ikaros degradation measured after 24 hrs by MSD assay; format: cell-based
T1 sequence (Q96SW2 whole entry): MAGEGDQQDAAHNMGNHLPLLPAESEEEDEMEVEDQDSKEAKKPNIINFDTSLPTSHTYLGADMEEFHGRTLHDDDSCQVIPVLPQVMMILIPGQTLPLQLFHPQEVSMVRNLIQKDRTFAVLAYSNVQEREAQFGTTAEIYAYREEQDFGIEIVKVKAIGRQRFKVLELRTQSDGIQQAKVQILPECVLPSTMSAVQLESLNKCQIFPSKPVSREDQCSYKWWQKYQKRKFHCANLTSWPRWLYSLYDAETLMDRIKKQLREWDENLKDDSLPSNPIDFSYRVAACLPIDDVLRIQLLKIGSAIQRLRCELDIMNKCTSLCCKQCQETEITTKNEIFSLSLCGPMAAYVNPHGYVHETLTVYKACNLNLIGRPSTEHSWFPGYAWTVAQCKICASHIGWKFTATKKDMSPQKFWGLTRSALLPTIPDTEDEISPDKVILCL
T1 sequence (Q13422 whole entry): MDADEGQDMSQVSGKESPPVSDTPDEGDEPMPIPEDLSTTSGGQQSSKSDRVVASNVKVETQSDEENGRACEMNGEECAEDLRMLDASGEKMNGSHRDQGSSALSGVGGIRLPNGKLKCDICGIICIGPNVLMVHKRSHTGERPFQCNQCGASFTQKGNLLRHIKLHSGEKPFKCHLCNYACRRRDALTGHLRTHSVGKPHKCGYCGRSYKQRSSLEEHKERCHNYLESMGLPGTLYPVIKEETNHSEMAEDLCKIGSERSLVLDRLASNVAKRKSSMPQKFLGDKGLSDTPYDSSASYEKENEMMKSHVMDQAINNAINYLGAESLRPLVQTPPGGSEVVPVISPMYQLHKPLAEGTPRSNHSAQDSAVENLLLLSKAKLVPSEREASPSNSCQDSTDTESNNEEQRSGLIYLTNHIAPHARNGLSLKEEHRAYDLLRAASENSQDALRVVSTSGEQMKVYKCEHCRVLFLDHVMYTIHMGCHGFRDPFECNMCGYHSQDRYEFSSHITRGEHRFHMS

[4] = Passive permeability of the compound in wild type MDCK cells across apical to basolateral side at 1 uM measured for 120 mins by LC-MS/MS analysis; format: ADME, cell-based, Canis lupus familiaris; details: dog, read-out: permeability
[5] = Volume of distribution at steady state in rat at 2 mg/kg, iv by LC-MS/MS analysis; format: ADME, organism-based; details: in vivo, read-out: Vdss
[6] = target: T2, Protein cereblon/Interleukin-1 receptor-associated kinase 4 (Homo sapiens, UniProt Q9NWZ3+Q96SW2); test: PROTAC activity at CRBN/IRAK4 in human OCI-Ly10 cells assessed as induction of IRAK4 degradation measured after 24 hrs by MSD assay; format: cell-based
Target sequence in this assay (Q9NWZ3 whole entry): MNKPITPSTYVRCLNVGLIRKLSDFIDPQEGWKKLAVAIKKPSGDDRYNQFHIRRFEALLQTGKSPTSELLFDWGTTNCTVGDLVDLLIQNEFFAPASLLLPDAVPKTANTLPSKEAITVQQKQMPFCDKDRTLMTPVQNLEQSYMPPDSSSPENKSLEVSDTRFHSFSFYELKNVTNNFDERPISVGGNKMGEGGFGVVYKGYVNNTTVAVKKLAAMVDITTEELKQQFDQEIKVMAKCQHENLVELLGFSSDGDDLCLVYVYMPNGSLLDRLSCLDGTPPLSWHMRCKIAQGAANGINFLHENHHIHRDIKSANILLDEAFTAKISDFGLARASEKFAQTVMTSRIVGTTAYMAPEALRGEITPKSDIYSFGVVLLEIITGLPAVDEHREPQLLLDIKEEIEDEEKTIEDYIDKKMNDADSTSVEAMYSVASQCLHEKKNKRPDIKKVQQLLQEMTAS
Target sequence in this assay (Q96SW2 whole entry): as the sequence (Q96SW2 whole entry) above

OCI-Ly10 [7] = test: Antiproliferative activity against human OCI-Ly10 cells measured after 4 days by CellTiter-Glo Luminescent Cell Viability Assay; format: functional, cell-based; details: Homo sapiens, OCI-Ly10, 96 h
[8] = Metabolic stability in rat liver microsomes assessed as intrinsic clearance at 1 uM measured upto 60 mins in presence of NADPH by UPLC/MS-MS analysis; format: ADME, Microsome; details: read-out: CLH
[9] = Half life in rat at 2 mg/kg, iv by LC-MS/MS analysis; format: ADME, organism-based; details: in vivo
[10] = Oral bioavailability in rat at 5 mg/kg by LC-MS/MS analysis; format: ADME, organism-based; details: in vivo
[11] = Metabolic stability in human liver microsomes assessed as intrinsic clearance at 1 uM measured upto 60 mins in presence of NADPH by UPLC/MS-MS analysis; format: ADME, Microsome; details: read-out: CLH
Protein cereblon = Protein cereblon (Homo sapiens, UniProt Q96SW2); test: Binding affinity to CRBN (unknown origin) by HTRF assay
Chain of Protein cereblon (Q96SW2 whole entry): as above

OCI-Ly10 [12] = test: Effect on GSPT1 expression in human OCI-Ly10 at 60 nM measured after 2 to 8 hrs by TMT based quantitative proteomics analysis; format: functional, cell-based; details: time 2-8 hrs
PBMC [13] = test: Effect on WIZ expression in human PBMC cells at 100 nM measured after 24 hrs by TMT based quantitative proteomics analysis; format: functional, cell-based
PBMC [14] = test: Effect on IKZF1 expression in human PBMC cells at 100 nM measured after 24 hrs by TMT based quantitative proteomics analysis; format: functional, cell-based
[15] = Half life in Non human primate at 0.2 mg/kg, iv by LC-MS/MS analysis; format: ADME, organism-based; details: primates, in vivo
[16] = Oral bioavailability in Non human primate at 2.1 mg/kg by LC-MS/MS analysis; format: ADME, organism-based; details: primates, in vivo
PBMC [17] = test: Effect on GSPT1 expression in human PBMC at 100 nM measured after 24 hrs by TMT based quantitative proteomics analysis; format: functional, cell-based
PBMC [18] = test: Downregulation of FGD2 expression in human PBMC cells at 100 nM measured after 24 hrs by TMT based quantitative proteomics analysis; format: functional, cell-based
PBMC [19] = test: Downregulation of LPXN expression in human PBMC cells at 100 nM measured after 24 hrs by TMT based quantitative proteomics analysis; format: functional, cell-based
[20] = Metabolic stability in mouse liver microsomes assessed as intrinsic clearance; format: ADME, Microsome; details: read-out: CLH
[21] = Oral bioavailability in dog at 2.1 mg/kg by LC-MS/MS analysis; format: ADME, organism-based, Canis lupus familiaris; details: in vivo
OCI-Ly10 [22] = test: Downregulation of FGD2 expression in human OCI-Ly10 cells at 60 nM measured after 2 to 8 hrs by TMT based quantitative proteomics analysis; format: functional, cell-based; details: time 2-8 hrs
OCI-Ly10 [23] = test: Antitumor activity against human OCI-LY10 cells xenografted in CB-17.SCID mouse model assessed as tumor growth regression at 3 mg/kg, po QD dosed measured after 38 days; format: functional, organism-based; details: time 38.0 day
[24] = Metabolic stability in Non human primate hepatocyte assessed as intrinsic clearance measured per million cells; format: ADME, cell-based; details: primates, hepatocytes; read-out: CLH
[25] = Oral bioavailability in mouse at 10 mg/kg by LC-MS/MS analysis; format: ADME, organism-based; details: in vivo
[26] = Half life in dog at 0.2 mg/kg, iv by LC-MS/MS analysis; format: ADME, organism-based, Canis lupus familiaris; details: in vivo
[27] = target: T3, Protein cereblon/Zinc finger protein Aiolos (Homo sapiens, UniProt Q96SW2+Q9UKT9); test: PROTAC activity at CRBN/Aiolos in human OCI-Ly10 cells assessed as maximum degradation at 41 nM measured within 2 hrs; format: cell-based
Target sequence in this assay (Q96SW2 whole entry, looked up): as the sequence (Q96SW2 whole entry) above
Target sequence in this assay (Q9UKT9 whole entry, looked up): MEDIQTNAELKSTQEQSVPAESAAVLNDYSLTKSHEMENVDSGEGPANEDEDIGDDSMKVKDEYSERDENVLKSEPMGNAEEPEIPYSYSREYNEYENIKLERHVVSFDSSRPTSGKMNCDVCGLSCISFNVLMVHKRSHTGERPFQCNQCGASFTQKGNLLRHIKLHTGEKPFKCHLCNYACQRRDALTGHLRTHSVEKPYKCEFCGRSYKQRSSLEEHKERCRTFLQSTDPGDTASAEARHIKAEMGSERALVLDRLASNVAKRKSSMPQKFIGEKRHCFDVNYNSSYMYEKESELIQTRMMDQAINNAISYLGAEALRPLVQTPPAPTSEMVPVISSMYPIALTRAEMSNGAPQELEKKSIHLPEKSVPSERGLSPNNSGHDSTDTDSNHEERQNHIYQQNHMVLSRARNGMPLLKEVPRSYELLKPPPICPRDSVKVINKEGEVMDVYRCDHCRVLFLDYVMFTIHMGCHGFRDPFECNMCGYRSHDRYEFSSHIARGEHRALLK

[28] = AUC in rat at 10 mg/kg, po by LC-MS/MS analysis; format: ADME, organism-based; details: in vivo, read-out: AUC
[29] = Metabolic stability in rat hepatocyte assessed as intrinsic clearance measured per million cells; format: ADME, cell-based; details: hepatocytes, read-out: CLH
PBMC [30] = test: Effect on ZFP276 expression in human PBMC cells at 100 nM measured after 24 hrs by TMT based quantitative proteomics analysis; format: functional, cell-based
[31] = Metabolic stability in Non human primate liver microsomes assessed as intrinsic clearance; format: ADME, Microsome; details: primates, read-out: CLH
PBMC [32] = test: Effect on ZFP91 expression in human PBMC cells at 100 nM measured after 24 hrs by TMT based quantitative proteomics analysis; format: functional, cell-based
[33] = Volume of distribution at steady state in mouse at 2 mg/kg, iv by LC-MS/MS analysis; format: ADME, organism-based; details: in vivo, read-out: Vdss
[34] = target: T3, Protein cereblon/Zinc finger protein Aiolos; test: PROTAC activity at CRBN/Aiolos in human OCI-Ly10 cells assessed as induction of Aiolos degradation measured after 24 hrs by MSD assay; format: cell-based
Target sequence in this assay (Q96SW2 whole entry): as the sequence (Q96SW2 whole entry) above
Target sequence in this assay (Q9UKT9 whole entry): as the sequence (Q9UKT9 whole entry, looked up) above

[35] = Volume of distribution at steady state in dog at 0.2 mg/kg, iv by LC-MS/MS analysis; format: ADME, organism-based, Canis lupus familiaris; details: in vivo, read-out: Vdss
[36] = Half life in mouse at 2 mg/kg, iv by LC-MS/MS analysis; format: ADME, organism-based; details: in vivo
OCI-Ly10 [37] = test: […] of IKZF3 expression in human OCI-Ly10 cells at 60 nM measured after 2 to 8 hrs by TMT based quantitative proteomics analysis; format: functional, cell-based; details: time 2-8 hrs
OCI-Ly10 [38] = test: Downregulation of LPXN expression in human OCI-Ly10 cells at 60 nM measured after 2 to 8 hrs by TMT based quantitative proteomics analysis; format: functional, cell-based; details: time 2-8 hrs
[39] = Metabolic stability in dog hepatocyte assessed as intrinsic clearance measured per million cells; format: ADME, cell-based, Canis lupus familiaris; details: hepatocytes, read-out: CLH
[40] = Clearance in dog at 0.2 mg/kg, iv by LC-MS/MS analysis; format: ADME, organism-based, Canis lupus familiaris; details: in vivo
[41] = AUC in Non human primate at 2.1 mg/kg, po by LC-MS/MS analysis; format: ADME, organism-based; details: primates, in vivo
OCI-Ly10 [42] = test: Antitumor activity in human patient derived OCI-LY10 cells xenografted in NPG mouse bearing MYD88-mutated DLBCL tumor containing a CD79 co-mutation model assessed as tumor growth regression at 20 mg/kg, po QD dosed measured after 3 to 5 days relative to control; format: functional; details: time 3-5 day
Cereblon/Ikaros [43] = target: T1, Cereblon/Ikaros; test: PROTAC activity at CRBN/Ikaros in human OCI-Ly10 cells assessed as maximum degradation at 41 nM measured within 2 hrs; format: cell-based
PBMC [44] = test: Effect on IKZF3 expression in human PBMC cells at 100 nM measured after 24 hrs by TMT based quantitative proteomics analysis; format: functional, cell-based
[45] = Metabolic stability in dog liver microsomes assessed as intrinsic clearance; format: ADME, Canis lupus familiaris, Microsome; details: read-out: CLH
[46] = Clearance in Non human primate at 0.2 mg/kg, iv by LC-MS/MS analysis; format: ADME, organism-based; details: primates, in vivo
[47] = target: T2, Protein cereblon/Interleukin-1 receptor-associated kinase 4; test: PROTAC activity at CRBN/IRAK4 in human OCI-Ly10 cells assessed as maximum degradation at 41 nM measured after 24 hrs; format: cell-based
Target sequence in this assay (Q96SW2 whole entry, looked up): as the sequence (Q96SW2 whole entry) above
Target sequence in this assay (Q9NWZ3 whole entry, looked up): as the sequence (Q9NWZ3 whole entry) above

OCI-Ly10 [48] = test: Antitumor activity against human OCI-LY10 cells xenografted in CB-17.SCID mouse model assessed as tumor growth regression at 10 to 30 mg/kg, po QD dosed measured after 38 days relative to control; format: functional; details: dose 10-30 mg/kg, time 38 day
[49] = Oral bioavailability in rat at 10 mg/kg by LC-MS/MS analysis; format: ADME, organism-based; details: in vivo
PBMC [50] = test: Downregulation of IRAK4 expression in human PBMC cells at 100 nM measured after 24 hrs by TMT based quantitative proteomics analysis; format: functional, cell-based
[51] = Metabolic stability in human hepatocyte assessed as intrinsic clearance measured per million cells; format: ADME, cell-based; details: hepatocytes, read-out: CLH
[52] = Clearance in mouse at 2 mg/kg, iv by LC-MS/MS analysis; format: ADME, organism-based; details: in vivo
[53] = Volume of distribution at steady state in Non human primate at 0.2 mg/kg, iv by LC-MS/MS analysis; format: ADME, organism-based; details: primates, in vivo, read-out: Vdss
[54] = AUC in mouse at 10 mg/kg, po by LC-MS/MS analysis; format: ADME, organism-based; details: in vivo
OCI-Ly10 [55] = test: […] of […] expression in human OCI-Ly10 cells at 60 nM measured after 2 to 8 hrs by TMT based quantitative proteomics analysis; format: functional, cell-based; details: time 2-8 hrs
[56] = AUC in dog at 2.1 mg/kg, po by LC-MS/MS analysis; format: ADME, organism-based, Canis lupus familiaris; details: in vivo
OCI-Ly10 [57] = test: Downregulation of […] expression in human OCI-Ly10 cells at 60 nM measured after 2 to 8 hrs by TMT based quantitative proteomics analysis; format: functional, cell-based; details: time 2-8 hrs

CC(C)(O)c1cc2nn([C@H]3CC[C@H](CN4CCC5(CC4)CC(CNc4cccc6c4C(=O)N(C4CCC(=O)NC4=O)C6=O)C5)CC3)cc2cc1NC(=O)c1cccc(C(F)(F)F)n1 (stereo not given in full)
AUC [1]: 60 nM·h
clearance [2]: 0.9 L/h/kg
DC50 (Cereblon/Ikaros [3]): 6 nM
Papp A→B at 2 h, 1 µM [4]: 22 nm/s
Vd [5]: 13 L/kg
DC50 [6]: 6 nM
IC50 (OCI-Ly10 [7]): 8 nM
microsomal CLint at 1 µM [8]: 2.1 µL/min/mg
half-life [9]: 11 h
bioavailability [10]: 1%
microsomal CLint at 1 µM [11]: 2.8 µL/min/mg
IC50 (Protein cereblon): 44 nM

CC(C)(O)c1cc2nc([C@H]3CC[C@H](CN4CC5(CC(CCNc6cccc7c6C(=O)N(C6CCC(=O)NC6=O)C7=O)C5)C4)CC3)sc2cc1NC(=O)c1cccc(C(F)(F)F)n1 (stereo not given in full) [ZOMIRADOMIDE]
clearance [2]: 0.546 L/h/kg
DC50 (Cereblon/Ikaros [3]): 1 nM
Activity (OCI-Ly10 [12]): inactive
Activity (PBMC [13]): Active
Activity (PBMC [14]): Active
half-life [15]: 16.4 h
Papp A→B at 2 h, 1 µM [4]: 13 nm/s
bioavailability [16]: 42%
Activity (PBMC [17]): inactive
Activity (PBMC [18]): Active
Vd [5]: 15 L/kg
Activity (PBMC [19]): Active
microsomal CLint [20]: 4 µL/min/mg
bioavailability [21]: 21%
DC50 [6]: 6 nM
Activity (OCI-Ly10 [22]): Active
Activity (OCI-Ly10 [23]): Active
hepatocyte CLint [24]: 2.7 µL/min/1e6 cells
bioavailability [25]: 19%
half-life [26]: 28 h
Activity [27]: Active
AUC [28]: 2700 nM·h
IC50 (OCI-Ly10 [7]): 11 nM
hepatocyte CLint [29]: 0.8 µL/min/1e6 cells
Activity (PBMC [30]): Active
microsomal CLint [31]: 8.6 µL/min/mg
Activity (PBMC [32]): Active
Vd [33]: 7.5 L/kg
DC50 [34]: 1 nM
Vd [35]: 29 L/kg
half-life [36]: 8.6 h
Activity (OCI-Ly10 [37]): Active
Activity (OCI-Ly10 [38]): Active
hepatocyte CLint [39]: 2.3 µL/min/1e6 cells
clearance [40]: 0.84 L/h/kg
AUC [41]: 3600 nM·h
Activity (OCI-Ly10 [42]): 100%
Activity (Cereblon/Ikaros [43]): Active
half-life [9]: 17 h
Activity (PBMC [44]): Active
microsomal CLint [45]: 4.2 µL/min/mg
clearance [46]: 0.27 L/h/kg
Activity [47]: Active
Activity (OCI-Ly10 [48]): 100%
bioavailability [49]: 15%
Activity (PBMC [50]): Active
hepatocyte CLint [51]: 3.5 µL/min/1e6 cells
clearance [52]: 0.66 L/h/kg
Vd [53]: 5.8 L/kg
AUC [54]: 2800 nM·h
Activity (OCI-Ly10 [55]): Active
AUC [56]: 460 nM·h
Activity (OCI-Ly10 [57]): Active
